The values that follow come from ChEMBL document CHEMBL5104187, “Discovery of 2-(1-(3-Chloro-4-cyanophenyl)-1H-pyrazol-3-yl)acetamides as Potent, Selective, and Orally Available Antagonists Targeting the Androgen Receptor” (J Med Chem, 2022).

Molecules are shown by their SMILES. Active and inactive are the calls of the source. The calls are words filed in the database; no cut-off is given here.

The target in data set [1] is T1, Androgen receptor (Homo sapiens, UniProt P10275).
T1 sequence (P10275 whole entry): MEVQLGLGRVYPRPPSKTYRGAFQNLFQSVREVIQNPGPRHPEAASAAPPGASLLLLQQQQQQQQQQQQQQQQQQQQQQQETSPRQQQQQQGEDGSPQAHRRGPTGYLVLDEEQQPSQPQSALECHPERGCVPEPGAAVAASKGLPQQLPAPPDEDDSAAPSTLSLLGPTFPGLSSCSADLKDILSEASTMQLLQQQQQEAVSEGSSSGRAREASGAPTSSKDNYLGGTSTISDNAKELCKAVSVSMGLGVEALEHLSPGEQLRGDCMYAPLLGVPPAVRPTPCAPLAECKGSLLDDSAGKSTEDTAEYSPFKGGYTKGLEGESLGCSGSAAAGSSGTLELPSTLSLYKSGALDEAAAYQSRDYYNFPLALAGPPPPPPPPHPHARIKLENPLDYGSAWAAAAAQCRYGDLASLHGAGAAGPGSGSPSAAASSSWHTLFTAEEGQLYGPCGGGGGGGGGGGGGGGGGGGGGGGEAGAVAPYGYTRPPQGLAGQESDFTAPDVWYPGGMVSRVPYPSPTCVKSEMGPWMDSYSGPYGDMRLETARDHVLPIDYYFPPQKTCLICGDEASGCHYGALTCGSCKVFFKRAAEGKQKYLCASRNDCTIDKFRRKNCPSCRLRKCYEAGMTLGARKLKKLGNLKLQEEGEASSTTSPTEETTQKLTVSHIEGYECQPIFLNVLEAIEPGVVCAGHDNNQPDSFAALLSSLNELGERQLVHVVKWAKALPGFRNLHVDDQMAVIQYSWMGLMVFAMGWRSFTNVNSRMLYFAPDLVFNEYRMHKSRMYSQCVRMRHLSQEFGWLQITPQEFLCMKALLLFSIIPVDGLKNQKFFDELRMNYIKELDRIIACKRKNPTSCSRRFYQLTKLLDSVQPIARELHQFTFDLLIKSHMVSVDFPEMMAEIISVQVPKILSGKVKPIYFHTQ
Put plainly: Antagonist activity at androgen receptor (unknown origin) in human LNCap-ARR2PB-eGFP cells by measuring fluorescence intensity measured after 3 days by transcriptional assay. In kind it is cell-based.

Data set [2] has as its system LNCaP. Nature of the data set: Cytotoxicity against human LNCAP cells assessed as inhibition of cell proliferation by MTT assay. In kind it is functional, cell-based. (Tetrazolium assays rely on reduction of a dye to a coloured formazan, in cell work by metabolically active cells.)
A short description of data set [3]: Cytotoxicity against human Chang liver cells assessed as inhibition of cell proliferation by MTT assay. The format is toxicity, cell-based.
The nature of data set [4]: Cytotoxicity against human GES1 cells assessed as inhibition of cell proliferation by MTT assay. The format is toxicity, cell-based.
A short description of data set [5]: Inhibition of PSA secretion in human LNCaP ARR2PB-eGFP cells measured after 3 days by immuno assay. In kind it is functional, cell-based. As to conditions: 72 h.
Data set [6] is described as follows: Antagonist activity at mineralocorticoid receptor (unknown origin) transfected in PC-3 cells assessed as inhibition of […]-stimulated transcriptional activity after 3 days by dual luciferase reporter assay. In kind it is cell-based. As to conditions: Homo sapiens, PC-3, 72 h.
A short description of data set [7]: Antagonist activity at androgen receptor T878G mutant (unknown origin) expressed in PC-3 cells assessed as inhibition of transcriptional activity measured after 24 hrs by dual luciferase assay. In kind it is cell-based. To be noted: Homo sapiens, PC-3, 24 h.
The target of data set [8] is T1, Androgen receptor.
Data set [9] has as its target T2, Androgen receptor (Homo sapiens, UniProt P10275, F877L). Put plainly: Antagonist activity at androgen receptor F877L mutant (unknown origin) expressed in PC-3 cells assessed as inhibition of transcriptional activity measured after 24 hrs by dual luciferase assay. The format is cell-based.
The target of data set [10] is T3, Androgen receptor (Homo sapiens, UniProt P10275, F877L/T878A). Put plainly: Antagonist activity at androgen receptor F877L/T877A dual mutant (unknown origin) expressed in PC-3 cells assessed as inhibition of transcriptional activity measured after 24 hrs by dual luciferase assay. The format is cell-based.
T3 sequence (P10275 whole entry F877L/T878A): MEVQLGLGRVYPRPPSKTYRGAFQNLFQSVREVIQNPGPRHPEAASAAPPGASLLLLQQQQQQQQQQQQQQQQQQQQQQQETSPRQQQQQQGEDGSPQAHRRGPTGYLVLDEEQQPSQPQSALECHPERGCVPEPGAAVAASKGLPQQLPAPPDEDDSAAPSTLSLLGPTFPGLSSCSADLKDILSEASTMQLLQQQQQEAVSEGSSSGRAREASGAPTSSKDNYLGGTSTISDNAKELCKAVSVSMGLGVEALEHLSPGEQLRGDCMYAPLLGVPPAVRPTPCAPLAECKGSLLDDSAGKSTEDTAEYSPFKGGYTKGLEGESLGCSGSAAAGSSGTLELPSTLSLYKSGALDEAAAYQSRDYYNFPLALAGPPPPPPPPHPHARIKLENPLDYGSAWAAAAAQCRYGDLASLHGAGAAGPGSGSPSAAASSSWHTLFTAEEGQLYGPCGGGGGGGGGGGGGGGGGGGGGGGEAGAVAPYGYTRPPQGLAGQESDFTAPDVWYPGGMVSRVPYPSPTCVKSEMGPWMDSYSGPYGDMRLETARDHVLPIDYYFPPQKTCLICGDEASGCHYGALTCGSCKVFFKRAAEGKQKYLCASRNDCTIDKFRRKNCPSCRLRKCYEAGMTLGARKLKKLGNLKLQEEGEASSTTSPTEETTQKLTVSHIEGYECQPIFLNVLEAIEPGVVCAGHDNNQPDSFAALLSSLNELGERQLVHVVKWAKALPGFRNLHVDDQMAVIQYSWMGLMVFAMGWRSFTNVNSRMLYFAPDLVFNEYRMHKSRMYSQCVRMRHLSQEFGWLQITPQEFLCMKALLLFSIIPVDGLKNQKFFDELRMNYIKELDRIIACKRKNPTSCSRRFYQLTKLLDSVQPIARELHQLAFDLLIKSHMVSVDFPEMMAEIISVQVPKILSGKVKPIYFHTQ
Data set [11] concerns the target T2, Androgen receptor. Nature of the data set: Antagonist activity at androgen receptor F877L mutant in human PC-3 cells assessed as inhibition of transcriptional activity measured after 24 hrs by luminescence based microplate reader assay. In kind it is cell-based.
The target of data set [12] is T3, Androgen receptor. Nature of the data set: Antagonist activity at androgen receptor F876L/T877A mutant in human PC-3 cells assessed as inhibition of transcriptional activity measured after 24 hrs by luminescence based microplate reader assay. The format is cell-based.
Data set [13] has as its target T4, Androgen receptor (Homo sapiens) (UniProt P10275).
T4 sequence (whole entry): T1 sequence (P10275 whole entry)
Put plainly: Antagonist activity at human AR AF2 assessed as inhibition of fluorescent-labelled D11-FxxLF peptide Co-activator to receptor by TR-FRET assay. To be noted: filed as antagonist. Background: TR-FRET usually uses a lanthanide donor and a delayed reading to cut background.

T2 sequence (P10275 whole entry F877L): as the sequence (P10275 whole entry F877L/T878A) above, with A878T counted along it

What is called IC50 is the point on the concentration scale where inhibition reaches its midpoint. The compound `N#Cc1ccc(-n2ccc(C(=O)Nc3ccc(F)cc3)n2)cc1C(F)(F)F` showed a half-maximal inhibitory concentration (IC50) in data set [1] of more than 25 µM.

`CC(C)(O)c1ccc(C(=O)NCc2ccn(-c3ccc(C#N)c(C(F)(F)F)c3)n2)cc1` came in with an IC50 in [1] of more than 25 µM.

Consider `CNC(=O)c1ccc(N2C(=S)N(c3ccc(C#N)c(C(F)(F)F)c3)C(=O)C2(C)C)cc1F` [ENZALUTAMIDE], for which the IC50 in [2] came to 26.3 µM; in [3], 64.7 µM; in [4] it was 96.9 µM; in data set [5], 0.48 µM; in [6], 0.13 µM.

Compound `N#Cc1ccc(-n2ccc(CNC(=O)Nc3ccc(F)cc3)n2)cc1C(F)(F)F` registered an IC50 in data set [1] of more than 25 µM.

The compound `N#Cc1ccc(-n2ccc(CC(=O)Nc3ccc(F)cn3)n2)cc1Cl` showed an IC50 in data set [1] of 0.17 µM.

For the compound `Cc1cn(-c2ccc(C#N)c(C(F)(F)F)c2)nc1CNC(=O)c1ccc([N+](=O)[O-])cc1`, inhibition in data set [1] was half-maximal at 0.45 µM (IC50).

As for `N#Cc1ccc(-n2ccc(CCNC(=O)c3ccc([N+](=O)[O-])cc3)n2)cc1C(F)(F)F`, the half-inhibitory concentration (IC50) in [1] is more than 25 µM.

`O=C(Cc1ccn(-c2ccc([N+](=O)[O-])c(C(F)(F)F)c2)n1)Nc1ccc(F)nc1` yielded an IC50 in [1] of 0.36 µM.

With `N#Cc1ccc(C(=O)NCc2ccn(-c3ccc(C#N)c(C(F)(F)F)c3)n2)cc1`, the IC50 in [1] worked out at 0.3 µM.

`CNC(=O)c1ccc(C(=O)NCc2ccn(-c3ccc(C#N)c(C(F)(F)F)c3)n2)cc1F` registered an IC50 in data set [1] of more than 25 µM.

As to `N#Cc1ccc(-n2ccc(CCCNC(=O)c3ccc([N+](=O)[O-])cc3)n2)cc1C(F)(F)F`, the IC50 in data set [1] was more than 25 µM.

As to `CC(O)c1cc(C(=O)N[C@H](C)Cn2ccc(-c3ccc(C#N)c(Cl)c3)n2)n[nH]1` (stereo not given in full), in [7], the IC50 came out at 0.69 µM.

`N#Cc1ccc(-n2ccc(CCNC(=O)c3ccc(F)cc3)n2)cc1C(F)(F)F` showed a half-maximal inhibitory concentration (IC50) in [1] of more than 25 µM.

Turning to `N#Cc1ccc(-n2ccc(NC(=O)c3ccc(F)cc3)n2)cc1C(F)(F)F`, the IC50 in data set [1] is more than 25 µM.

Consider `N#Cc1ccc(NC(=O)c2ccn(-c3ccc(C#N)c(C(F)(F)F)c3)n2)cc1`, for which, in [1], the IC50 is more than 25 µM.

In data set [1], `N#Cc1ccc(-n2ccc(C(=O)Nc3ccc(F)cn3)n2)cc1C(F)(F)F` registered an IC50 of more than 25 µM.

With `O=C(Cc1ccn(-c2ccc([N+](=O)[O-])c(C(F)(F)F)c2)n1)Nc1ccc(F)cn1`, in data set [1], 2.57 µM corresponded to half-maximal inhibition (IC50).

The compound `N#Cc1ccc(-n2ccc(CC(=O)Nc3ccc([N+](=O)[O-])cc3)n2)cc1C(F)(F)F` had an IC50 in data set [1] of 0.08 µM.

On to `N#Cc1ccc(-n2ccc(CNC(=O)c3ccc([N+](=O)[O-])cc3)n2)cc1C(F)(F)F`, for which, in data set [1], the IC50 came out at 1.85 µM.

Consider `N#Cc1ccc(-n2ccc(C(=O)Nc3ccc(F)nc3)n2)cc1C(F)(F)F`, for which the IC50 in data set [1] was more than 25 µM.

As to `N#Cc1ccc(-n2ccc(CC(=O)Nc3ccc(F)cn3)n2)cc1C(F)(F)F`, in data set [1], the IC50 was 0.34 µM.

Compound `N#Cc1ccc(-n2cc(-c3ccccc3)c(CNC(=O)c3ccc(F)cc3)n2)cc1C(F)(F)F` yielded an IC50 in data set [1] of more than 25 µM.

Turning to `N#Cc1ccc(-n2ccc(CC(=O)Nc3ccc(F)c(F)c3)n2)cc1C(F)(F)F`, in data set [1], 0.21 µM corresponded to half-maximal inhibition (IC50).

`N#Cc1ccc(-n2ccc(CCCNC(=O)c3ccc(F)cc3)n2)cc1C(F)(F)F`: the IC50 in data set [1] was more than 25 µM.

`Cc1cn(-c2ccc(C#N)c(C(F)(F)F)c2)nc1CNC(=O)c1ccc(F)cc1`: in [1], the midpoint of inhibition, the IC50, lay at 0.22 µM.

In data set [1], `N#Cc1ccc(NC(=O)Cc2ccn(-c3ccc(C#N)c(C(F)(F)F)c3)n2)cc1` came in with an IC50 of 0.05 µM.

In data set [1], `CC(O)c1cc(C(=O)NCc2ccn(-c3ccc(C#N)c(C(F)(F)F)c3)n2)n[nH]1` (stereo not given) came in with an IC50 of more than 25 µM.

In turn, `N#Cc1ccc(-n2ccc(NC(=O)Nc3ccc(F)cc3)n2)cc1C(F)(F)F` gave an IC50 in data set [1] of more than 25 µM.

Compound `N#Cc1ccc(-n2ccc(CNC(=O)c3ccc(F)nc3)n2)cc1C(F)(F)F` gave an IC50 in [1] of 0.78 µM.

In the case of `Cc1cn(-c2ccc(C#N)c(C(F)(F)F)c2)nc1CNC(=O)c1ccc(C#N)cc1`, the IC50 in data set [1] amounted to 14.9 µM.

On to `N#Cc1ccc(-n2ccc(C(=O)Nc3ccncc3)n2)cc1C(F)(F)F`, for which the IC50 in [1] was more than 25 µM.

`N#Cc1ccc(-n2ccc(CC(=O)Nc3ccncc3)n2)cc1C(F)(F)F` returned an IC50 in data set [1] of more than 25 µM.

On to `N#Cc1ccc(-n2cc(C(F)(F)F)c(CNC(=O)c3ccc(F)cc3)n2)cc1C(F)(F)F`, for which the IC50 in data set [1] was found to be 16.2 µM.

Consider `COc1ccc(NC(=O)Cc2ccn(-c3ccc(C#N)c(C(F)(F)F)c3)n2)cc1`, for which the half-inhibitory concentration (IC50) in data set [1] stood at 9.2 µM.

As to `N#Cc1ccc(-n2ccc(CNC(=O)c3ccc(C(F)(F)F)cc3)n2)cc1C(F)(F)F`, the IC50 in [1] was more than 25 µM.

In the case of `Cc1ccc(NC(=O)Cc2ccn(-c3ccc(C#N)c(C(F)(F)F)c3)n2)cc1`, in data set [1], the IC50 was 4.53 µM.

One may read the Kd as a measure of binding affinity in units of concentration. The low end stands for higher affinity, the high end for lower affinity. Regarding `N#Cc1ccc(-n2ccc(CC(=O)Nc3ccc(F)cc3)n2)cc1C(F)(F)F`, the half-inhibitory concentration (IC50) in [1] is 0.12 µM; in data set [2] it was 5.85 µM; in data set [3] it was more than 1000 µM; in [4] it was more than 1000 µM; in data set [5] it was 3.91 µM; in [6], 4.43 µM. Also, the IC50 in [9] stood at 0.91 µM; in data set [10], 0.25 µM; in data set [11], 0.91 µM; in data set [12] it was 0.25 µM; in data set [7] it was 0.08 µM. This compound also yielded a Kd in data set [8] of 10 µM. Also, the result in data set [13] was Active.

The compound `N#Cc1ccc(-n2ccc(CC(=O)Nc3ccc(F)cc3)n2)cc1Cl` yielded an IC50 in data set [1] of 0.22 µM.

With `N#Cc1cc(NC(=O)Cc2ccn(-c3ccc(C#N)c(C(F)(F)F)c3)n2)ccc1F`, half-maximal inhibition in data set [1] (IC50) required 6.34 µM.

Compound `N#Cc1ccc(-n2ccc(CNS(=O)(=O)c3ccc(F)cc3)n2)cc1C(F)(F)F` had an IC50 in [1] of more than 25 µM.

Turning to `N#Cc1ccc(-n2ccc(CNC(=O)c3ccc(F)cc3)n2)cc1C(F)(F)F`, in data set [1], the IC50 turned out to be 0.76 µM.

Consider `N#Cc1ccc(-n2ccc(CNC(=O)c3ccc(Cl)cc3)n2)cc1C(F)(F)F`, for which inhibition in [1] was half-maximal at 1.15 µM (IC50).

Compound `O=C(Cc1ccn(-c2ccc([N+](=O)[O-])c(C(F)(F)F)c2)n1)Nc1ccc(F)cc1` showed a concentration for half-maximal inhibition (IC50) in data set [1] of 0.34 µM.

Regarding `N#Cc1ccc(C(=O)NCCc2ccn(-c3ccc(C#N)c(C(F)(F)F)c3)n2)cc1`, the IC50 in [1] is more than 25 µM.

Compound `N#Cc1ccc(C(=O)NCCCc2ccn(-c3ccc(C#N)c(C(F)(F)F)c3)n2)cc1` had an IC50 in data set [1] of more than 25 µM.

For `N#Cc1ccc(-n2ccc(CNC(=O)c3ccc(F)cn3)n2)cc1C(F)(F)F`, the IC50 in data set [1] is 5.82 µM.

As for `N#Cc1ccc(-n2ccc(CC(=O)Nc3ccc(F)nc3)n2)cc1C(F)(F)F`, the IC50 in data set [1] is 0.14 µM; in data set [2], 8.84 µM; in data set [3], more than 1000 µM; in [4], more than 1000 µM; in data set [5], 1.75 µM; in [6], 16.3 µM. Further, the IC50 in [9] is 1.31 µM; in data set [10] it was 1.12 µM; in data set [11], 1.31 µM; in [12], 1.12 µM; in data set [7], 0.31 µM. Further, the Kd in data set [8] worked out at 8.99 µM. Moreover, in data set [13], the outcome was Active.
